Source: BindingDB's records for doi:10.1002/cbic.201300197 (Nankai University, 2013)

Tests used:
[1] = target: T1, Lysosomal acid glucosylceramidase (Homo sapiens, UniProt P04062); assay: GCase IC50 Assay
T1 sequence (P04062 whole entry): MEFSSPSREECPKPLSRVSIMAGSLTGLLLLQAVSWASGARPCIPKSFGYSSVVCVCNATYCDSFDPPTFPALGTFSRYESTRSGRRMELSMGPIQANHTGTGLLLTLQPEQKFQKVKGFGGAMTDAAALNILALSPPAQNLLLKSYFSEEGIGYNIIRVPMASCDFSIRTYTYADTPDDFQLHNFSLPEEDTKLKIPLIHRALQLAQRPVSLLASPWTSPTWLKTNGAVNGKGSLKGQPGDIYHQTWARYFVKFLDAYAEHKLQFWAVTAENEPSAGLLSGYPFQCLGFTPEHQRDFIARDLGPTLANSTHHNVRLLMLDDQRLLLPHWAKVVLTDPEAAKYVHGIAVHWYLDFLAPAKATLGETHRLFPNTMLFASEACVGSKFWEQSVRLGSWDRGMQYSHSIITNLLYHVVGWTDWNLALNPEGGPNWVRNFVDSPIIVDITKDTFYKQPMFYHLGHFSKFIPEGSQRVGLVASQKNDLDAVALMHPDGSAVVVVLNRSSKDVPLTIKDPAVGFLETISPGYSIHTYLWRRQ

[2] = target: Alpha-galactosidase (Coffea arabica, UniProt Q42656); assay: Inhibition Assay Against Commercial Glycosidases; conditions: 37 °C
Sequence of Alpha-galactosidase (Q42656 whole entry): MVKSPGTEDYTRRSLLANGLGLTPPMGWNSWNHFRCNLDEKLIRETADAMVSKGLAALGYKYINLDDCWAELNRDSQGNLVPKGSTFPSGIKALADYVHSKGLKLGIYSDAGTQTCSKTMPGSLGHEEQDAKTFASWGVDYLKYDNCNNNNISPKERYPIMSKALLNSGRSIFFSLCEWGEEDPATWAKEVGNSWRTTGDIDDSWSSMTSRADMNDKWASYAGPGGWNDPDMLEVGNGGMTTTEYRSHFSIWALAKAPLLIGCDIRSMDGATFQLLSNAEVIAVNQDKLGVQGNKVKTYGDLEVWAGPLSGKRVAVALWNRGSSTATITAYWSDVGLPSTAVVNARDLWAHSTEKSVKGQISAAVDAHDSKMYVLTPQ
Experimental: (§1) In a 96-well plates, 10µL of commercial enzyme solutions without (control) or with 20µL of inhibitor were incubated at 37°C for 5 min. After addition of 20µL of substrate solution, incubations were prolonged for different time periods: 10 min for β-glucosidase (almond), 5 min for α-glucosidase (saccharomyces cerevisiae) and 8 min for β-galactosidase (bovine liver) and α-galactosidase (green coffee beans) and stopped by addition of 150µL of glycine/NaOH buffer (100mM, pH 10.6). The amount of 4-MU formed was determined at 355nm (excitation) and 460nm (emission). For β-glucosidase (almond), the activity was determined with 4-MU-β-D-Glu (1mM) in sodium acetate buffer (100 mM, pH 5.2). For α-glucosidase (saccharomyces cerevisiae), the activity was determined with4-methylumbelliferyl-α-D-glucopyranoside (4-MU-α-D-Glu, 1 mM) in sodium phosphate buffer (100 mM, pH 7.2). For β-galactosidase (bovine liver), the activity was determined with 4-me

[3] = target: Alpha-glucosidase MAL12 (Saccharomyces cerevisiae (strain ATCC 204508 / S288c), UniProt P53341); assay: Inhibition Assay Against Commercial Glycosidases; conditions: 37 °C
Sequence of Alpha-glucosidase MAL12 (P53341 whole entry): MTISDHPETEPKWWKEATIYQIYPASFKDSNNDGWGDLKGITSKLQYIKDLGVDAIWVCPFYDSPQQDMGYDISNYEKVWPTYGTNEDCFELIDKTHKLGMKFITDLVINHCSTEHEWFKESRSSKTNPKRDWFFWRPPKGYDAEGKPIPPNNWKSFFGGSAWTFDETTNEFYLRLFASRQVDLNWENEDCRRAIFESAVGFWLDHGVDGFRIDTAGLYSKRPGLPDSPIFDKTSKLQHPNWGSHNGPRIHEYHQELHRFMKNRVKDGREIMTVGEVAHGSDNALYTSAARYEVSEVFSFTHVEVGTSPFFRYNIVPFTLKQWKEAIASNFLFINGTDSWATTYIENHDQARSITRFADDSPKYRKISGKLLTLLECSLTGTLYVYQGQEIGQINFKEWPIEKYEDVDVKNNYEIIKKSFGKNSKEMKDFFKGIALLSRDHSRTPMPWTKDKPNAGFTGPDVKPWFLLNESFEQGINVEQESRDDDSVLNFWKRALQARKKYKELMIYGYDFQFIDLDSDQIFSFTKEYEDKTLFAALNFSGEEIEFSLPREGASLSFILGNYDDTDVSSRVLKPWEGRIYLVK
Experimental: as §1

[4] = target: T2, Beta-galactosidase (Bos taurus, UniProt Q58D55); assay: Inhibition Assay Against Commercial Glycosidases; conditions: 37 °C
T2 sequence (Q58D55 whole entry): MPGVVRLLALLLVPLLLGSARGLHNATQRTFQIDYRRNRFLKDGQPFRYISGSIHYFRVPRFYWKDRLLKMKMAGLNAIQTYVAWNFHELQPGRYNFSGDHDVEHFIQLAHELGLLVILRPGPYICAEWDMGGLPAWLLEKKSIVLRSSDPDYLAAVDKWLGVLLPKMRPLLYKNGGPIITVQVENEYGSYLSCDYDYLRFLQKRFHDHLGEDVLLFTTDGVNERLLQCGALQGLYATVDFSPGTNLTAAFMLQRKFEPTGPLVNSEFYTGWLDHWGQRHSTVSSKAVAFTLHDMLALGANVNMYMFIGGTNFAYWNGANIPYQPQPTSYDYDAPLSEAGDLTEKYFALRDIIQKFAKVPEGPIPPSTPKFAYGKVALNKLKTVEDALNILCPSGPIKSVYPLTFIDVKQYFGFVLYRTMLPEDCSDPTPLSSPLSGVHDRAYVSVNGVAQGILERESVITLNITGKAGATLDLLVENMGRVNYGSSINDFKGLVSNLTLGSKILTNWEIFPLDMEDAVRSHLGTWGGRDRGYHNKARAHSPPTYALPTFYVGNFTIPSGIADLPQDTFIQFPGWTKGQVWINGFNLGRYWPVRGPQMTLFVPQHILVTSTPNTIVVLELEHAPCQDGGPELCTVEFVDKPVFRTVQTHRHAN
Experimental: as §1

[5] = target: T3, Prunasin hydrolase (Prunus dulcis, UniProt H9ZGE1); assay: Inhibition Assay Against Commercial Glycosidases; conditions: 37 °C
T3 sequence (H9ZGE1 whole entry): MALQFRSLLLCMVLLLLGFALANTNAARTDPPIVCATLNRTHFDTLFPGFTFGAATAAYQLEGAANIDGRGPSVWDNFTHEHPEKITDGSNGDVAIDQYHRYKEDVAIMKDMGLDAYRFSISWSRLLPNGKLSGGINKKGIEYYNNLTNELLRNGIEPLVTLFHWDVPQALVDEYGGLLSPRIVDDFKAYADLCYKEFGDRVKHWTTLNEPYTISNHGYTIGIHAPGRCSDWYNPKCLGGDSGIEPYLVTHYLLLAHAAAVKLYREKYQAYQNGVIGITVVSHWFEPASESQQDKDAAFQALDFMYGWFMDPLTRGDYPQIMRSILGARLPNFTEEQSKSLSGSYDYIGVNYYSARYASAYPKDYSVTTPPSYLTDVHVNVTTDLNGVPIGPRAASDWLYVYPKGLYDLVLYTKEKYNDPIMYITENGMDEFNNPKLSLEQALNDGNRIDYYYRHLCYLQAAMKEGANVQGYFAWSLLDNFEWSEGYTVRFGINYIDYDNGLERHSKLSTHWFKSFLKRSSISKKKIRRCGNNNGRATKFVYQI
Experimental: as §1

[6] = target: T1, Lysosomal acid glucosylceramidase; assay: GCase Ki Assay; conditions: pH 5.2

| SMILES | IC50 ([1]; pH 5.2) [nM] | IC50 ([1]; pH 7) [nM] | IC50 [2] [nM] | IC50 [3] [nM] | IC50 [4] [nM] | IC50 [5] [nM] | Ki [6] [nM] |
| --- | --- | --- | --- | --- | --- | --- | --- |
| CCCCCCCCCN1C[C@H](O)[C@@H](O)[C@H](O)[C@H]1CO | – | – | 9490 | > 100000 | – | 95900 | – |
| OCC1C(O)C(O)C(O)c2nc(CCc3ccccc3)cn21 (centres undefined) [5-(hydroxymethyl)-2-(2-phenylethyl)-5H,6H,7H,8H-imidazo[1,2-a]pyridine-6,7,8-triol (Compound 2)] | 3.71 | 2.04 | 16100 | 570 | 190 | 58 | 3.19 |
| OCC1C(O)C(O)C(O)c2nccn21 (centres undefined) [5-(hydroxymethyl)-5H,6H,7H,8H-imidazo[1,2-a]pyridine-6,7,8-triol (Compound 1)] | 91.6 | 79.2 | 7290 | 98500 | 230 | 220 | 33.1 |
| CC(C)(C)CCc1cn2c(n1)C(O)C(O)C(O)C2CO (centres undefined) [2-(3,3-dimethylbutyl)-5-(hydroxymethyl)-5H,6H,7H,8H-imidazo[1,2-a]pyridine-6,7,8-triol (Compound 3)] | 5.34 | 4.26 | 12800 | 3420 | 350 | 79 | 5.34 |
| CCCCCCCCc1cn2c(n1)C(O)C(O)C(O)C2CO (centres undefined) [5-(hydroxymethyl)-2-octyl-5H,6H,7H,8H-imidazo[1,2-a]pyridine-6,7,8-triol (Compound 4)] | 8.39 | 5.05 | 12500 | 970 | 37 | 117 | 5.38 |
| OCC1C(O)C(O)C(O)c2nc(CCCc3ccc(C4CCCCC4)cc3)cn21 (centres undefined) [2-[3-(4-cyclohexylphenyl)propyl]-5-(hydroxymethyl)-5H,6H,7H,8H-imidazo[1,2-a]pyridine-6,7,8-triol (Compound 8)] | 8.42 | 7.8 | 11400 | 52 | 1 | 4 | 1.93 |

These reach a lower IC50 [2]. Values come first.

| IC50 ([1]; pH 5.2) [nM] | IC50 ([1]; pH 7) [nM] | IC50 [2] [nM] | IC50 [3] [nM] | IC50 [4] [nM] | IC50 [5] [nM] | Ki [6] [nM] | SMILES |
| --- | --- | --- | --- | --- | --- | --- | --- |
| 12 | 11.5 | 4710 | 12800 | 7830 | 910 | 18.9 | CC(C)(CCCc1cn2c(n1)C(O)C(O)C(O)C2CO)C(=O)Nc1ccccc1 (centres undefined) [2,2-dimethyl-N-phenyl-5-[6,7,8-trihydroxy-5-(hydroxymethyl)-5H,6H,7H,8H-imidazo[1,2-a]pyridin-2-yl]pentanamide (Compound 11)] |
| 5.44 | 4.73 | 4480 | 280 | 100 | 42 | 1.46 | Cc1ccc(CCCc2cn3c(n2)C(O)C(O)C(O)C3CO)cc1 (centres undefined) [5-(hydroxymethyl)-2-[3-(4-methylphenyl)propyl]-5H,6H,7H,8H-imidazo[1,2-a]pyridine-6,7,8-triol (Compound 5)] |
| 6.96 | 7.67 | 1480 | 1050 | 11800 | 140 | 4.18 | O=C(CCCc1cn2c(n1)C(O)C(O)C(O)C2CO)Nc1ccccc1 (centres undefined) [N-phenyl-4-[6,7,8-trihydroxy-5-(hydroxymethyl)-5H,6H,7H,8H-imidazo[1,2-a]pyridin-2-yl]butanamide (Compound 10)] |
| 2.97 | 3.62 | 4900 | 300 | 92 | 78 | 1.17 | COc1ccc(CCCc2cn3c(n2)C(O)C(O)C(O)C3CO)cc1 (centres undefined) [5-(hydroxymethyl)-2-[3-(4-methoxyphenyl)propyl]-5H,6H,7H,8H-imidazo[1,2-a]pyridine-6,7,8-triol (Compound 6)] |
| 5.27 | 5.11 | 1660 | 6 | – | 42 | 3.62 | OCC1C(O)C(O)C(O)c2nc(CCCc3ccc(-c4ccccc4)cc3)cn21 (centres undefined) [5-(hydroxymethyl)-2-[3-(4-phenylphenyl)propyl]-5H,6H,7H,8H-imidazo[1,2-a]pyridine-6,7,8-triol (Compound 7)] |
| 6.23 | 4.75 | 3750 | 730 | 230 | 31 | 3.48 | OCC1C(O)C(O)C(O)c2nc(CCCc3ccc(F)cc3)cn21 (centres undefined) [2-[3-(4-fluorophenyl)propyl]-5-(hydroxymethyl)-5H,6H,7H,8H-imidazo[1,2-a]pyridine-6,7,8-triol (Compound 9)] |
